Measured values from patent US20260363251A1 (priority 2022, published 2026).

Columns and labels:
[1] = test system: Alternaria solani; assay: Treatment of early blight on tomato (Table 13); assay type: in vivo; details: 1 d preventive, 400 L/ha, 4DAI
[2] = test system: Colletotrichum lagenarium; assay: Treatment of anthracnose on cucumber (Table 13); assay type: in vivo; details: 1 d preventive, 400 L/ha, 5DAI
[3] = test system: Rhynchosporium secalis; assay: Treatment of scald on barley (Table 14); assay type: in vivo; details: 1 d preventive, 200 L/ha, 15DAI
[4] = test system: Parastagonospora nodorum; assay: Treatment of glume blotch on wheat (Table 14); assay type: in vivo; details: 1 d preventive, 200 L/ha, 7DAI
[5] = test system: Zymoseptoria tritici; assay: Preventive and curative treatment of Zymoseptoria tritici on wheat (Table 8); assay type: in vivo; details: 200 L/ha, 17DAI
[6] = test system: Puccinia recondita; assay: Preventive and curative treatment of Puccinia recondita on wheat (Table 8); assay type: in vivo; details: 200 L/ha
[7] = test system: Ramularia collo-cygni; assay: Treatment of ramularia leaf spot on barley (Table 14); assay type: in vivo; details: 1 d preventive, 200 L/ha, 20DAI
[8] = test system: Zymoseptoria tritici; assay: Treatment of Zymoseptoria tritici on wheat beyond the treated area (Table 16); assay type: in vivo; details: 188 ppm, 17DAI
[9] = test system: Puccinia striiformis; assay: Treatment of wheat infected with yellow rust Puccinia striiformis (Table 9); assay type: in vivo; details: 200 L/ha
[10] = test system: Blumeria graminis f.sp. tritici; assay: Treatment of powdery mildew on wheat (Table 12); assay type: in vivo; details: 1 d preventive, 200 L/ha, 27 g/ha, 7DAI
[11] = test system: Mycosphaerella arachidis; assay: Treatment of early leaf spots on groundnut (Table 13); assay type: in vivo; details: 1 d preventive, 400 L/ha, 11DAI
[12] = test system: Puccinia recondita; assay: Treatment of Puccinia recondita on wheat beyond the treated area (Table 16); assay type: in vivo; details: 188 ppm, 11DAI
[13] = test system: Fusarium virguliforme; assay: Seed treatment, soilborne Fusarium virguliforme in soybean in the greenhouse (Example 4.2); details: FS500, 40 g ai per 100 kg seeds; disease index vs infected control
[14] = test system: Fusarium avenaceum; assay type: in vivo; details: 1 d preventive, 220 L/ha, 125 g/ha, 14DAI
[15] = test system: Fusarium graminearum; assay type: in vivo; details: 1 d preventive, 220 L/ha, 125 g/ha, 7DAI
[16] = test system: Mycosphaerella fijiensis; assay: Treatment of black Sigatoka on banana (Table 10); assay type: in vivo; details: 1 d preventive, 400 L/ha, 75 g/ha, 63DAI, + 0.9% Orchex 796 + 0.1% Emulsogen M
[17] = test system: Oculimacula yallundae; assay: Treatment of eyespot on wheat (Table 15); assay type: in vivo; details: 1 d preventive, 200 L/ha, 450 g/ha

SMILES: Cn1cc(C(=O)Nc2cccc3c2C2CCC3C2=C(Cl)Cl)c(C(F)F)n1 (stereo not shown) [SOLATENOL]
- disease symptom reduction (%) vs. Untreated ([1]; 1 g/ha): 40%
- disease symptom reduction (%) vs. Untreated ([1]; 2 g/ha): 53%
- disease symptom reduction (%) vs. Untreated ([1]; 6 g/ha): 80%
- disease symptom reduction (%) vs. Untreated ([1]; 20 g/ha): 90%
- disease symptom reduction (%) vs. Untreated ([1]; 60 g/ha): 100%
- disease symptom reduction (%) vs. Untreated ([2]; 1 g/ha): 53%
- disease symptom reduction (%) vs. Untreated ([2]; 2 g/ha): 67%
- disease symptom reduction (%) vs. Untreated ([2]; 6 g/ha): 60%
- disease symptom reduction (%) vs. Untreated ([2]; 20 g/ha): 90%
- disease symptom reduction (%) vs. Untreated ([2]; 60 g/ha): 100%
- disease symptom reduction (%) vs. Untreated ([3]; 4 g/ha): 31%
- disease symptom reduction (%) vs. Untreated ([3]; 12 g/ha): 60%
- disease symptom reduction (%) vs. Untreated ([3]; 40 g/ha): 94%
- disease symptom reduction (%) vs. Untreated ([3]; 120 g/ha): 100%
- disease symptom reduction (%) vs. Untreated ([4]; 4 g/ha): 16%
- disease symptom reduction (%) vs. Untreated ([4]; 12 g/ha): 44%
- disease symptom reduction (%) vs. Untreated ([4]; 40 g/ha): 81%
- disease symptom reduction (%) vs. Untreated ([4]; 120 g/ha): 85%
- disease symptom reduction (%) vs. Untreated ([5]; 1 d preventive, 1 g/ha): 0%
- disease symptom reduction (%) vs. Untreated ([5]; 1 d preventive, 3 g/ha): 0%
- disease symptom reduction (%) vs. Untreated ([5]; 1 d preventive, 9 g/ha): 70%
- disease symptom reduction (%) vs. Untreated ([5]; 1 d preventive, 27 g/ha): 97%
- disease symptom reduction (%) vs. Untreated ([5]; 3 d curative, 1 g/ha): 4%
- disease symptom reduction (%) vs. Untreated ([5]; 3 d curative, 3 g/ha): 0%
- disease symptom reduction (%) vs. Untreated ([5]; 3 d curative, 9 g/ha): 61%
- disease symptom reduction (%) vs. Untreated ([5]; 3 d curative, 27 g/ha): 82%
- disease symptom reduction (%) vs. Untreated ([6]; 1 d preventive, 1 g/ha, 10DAI): 49%
- disease symptom reduction (%) vs. Untreated ([6]; 1 d preventive, 3 g/ha, 10DAI): 88%
- disease symptom reduction (%) vs. Untreated ([6]; 1 d preventive, 9 g/ha, 10DAI): 96%
- disease symptom reduction (%) vs. Untreated ([6]; 1 d preventive, 27 g/ha, 10DAI): 99%
- disease symptom reduction (%) vs. Untreated ([6]; 3 d curative, 1 g/ha, 11DAI): 47%
- disease symptom reduction (%) vs. Untreated ([6]; 3 d curative, 3 g/ha, 11DAI): 58%
- disease symptom reduction (%) vs. Untreated ([6]; 3 d curative, 9 g/ha, 11DAI): 84%
- disease symptom reduction (%) vs. Untreated ([6]; 3 d curative, 27 g/ha, 11DAI): 92%
- disease symptom reduction (%) vs. Untreated ([7]; 4 g/ha): 6%
- disease symptom reduction (%) vs. Untreated ([7]; 12 g/ha): 32%
- disease symptom reduction (%) vs. Untreated ([7]; 40 g/ha): 80%
- disease symptom reduction (%) vs. Untreated ([7]; 120 g/ha): 97%
- disease cover on leaf (%) ([8]; leaf 1, not treated): 100%
- disease symptom reduction (%) vs. Untreated ([8]; leaf 1, not treated): 0%
- disease cover on leaf (%) ([8]; leaf 2 - base, not treated): 89%
- disease symptom reduction (%) vs. Untreated ([8]; leaf 2 - base, not treated): 8%
- disease cover on leaf (%) ([8]; leaf 2 - middle, treated): 0%
- disease symptom reduction (%) vs. Untreated ([8]; leaf 2 - middle, treated): 100%
- disease cover on leaf (%) ([8]; leaf 2 - tip, not treated): 0%
- disease symptom reduction (%) vs. Untreated ([8]; leaf 2 - tip, not treated): 100%
- disease cover on leaf (%) ([8]; leaf 3, not treated): 42%
- disease symptom reduction (%) vs. Untreated ([8]; leaf 3, not treated): 15%
- disease symptom reduction (%) vs. Untreated ([9]; 1 d preventive, 0.9 g/ha, 22DAI): 0%
- disease symptom reduction (%) vs. Untreated ([9]; 1 d preventive, 2.8 g/ha, 22DAI): 76%
- disease symptom reduction (%) vs. Untreated ([9]; 1 d preventive, 8 g/ha, 22DAI): 90%
- disease symptom reduction (%) vs. Untreated ([9]; 1 d preventive, 25 g/ha, 22DAI): 100%
- disease symptom reduction (%) vs. Untreated ([9]; 1 d preventive, 75 g/ha, 22DAI): 100%
- disease symptom reduction (%) vs. Untreated ([9]; 4 d curative, 0.9 g/ha, 21DAI): 84%
- disease symptom reduction (%) vs. Untreated ([9]; 4 d curative, 2.8 g/ha, 21DAI): 93%
- disease symptom reduction (%) vs. Untreated ([9]; 4 d curative, 8 g/ha, 21DAI): 95%
- disease symptom reduction (%) vs. Untreated ([9]; 4 d curative, 25 g/ha, 21DAI): 99%
- disease symptom reduction (%) vs. Untreated ([9]; 4 d curative, 75 g/ha, 21DAI): 100%
- disease symptom reduction (%) vs. Untreated [10]: 54%
- disease symptom reduction (%) vs. Untreated ([11]; 1 g/ha): 56%
- disease symptom reduction (%) vs. Untreated ([11]; 2 g/ha): 67%
- disease symptom reduction (%) vs. Untreated ([11]; 6 g/ha): 89%
- disease symptom reduction (%) vs. Untreated ([11]; 20 g/ha): 100%
- disease symptom reduction (%) vs. Untreated ([11]; 60 g/ha): 98%
- disease cover on leaf (%) ([12]; leaf 1, not treated): 80%
- disease symptom reduction (%) vs. Untreated ([12]; leaf 1, not treated): 11%
- disease cover on leaf (%) ([12]; leaf 2 - base, not treated): 81%
- disease symptom reduction (%) vs. Untreated ([12]; leaf 2 - base, not treated): 0%
- disease cover on leaf (%) ([12]; leaf 2 - middle, treated): 0%
- disease symptom reduction (%) vs. Untreated ([12]; leaf 2 - middle, treated): 100%
- disease cover on leaf (%) ([12]; leaf 2 - tip, not treated): 2%
- disease symptom reduction (%) vs. Untreated ([12]; leaf 2 - tip, not treated): 98%
- disease cover on leaf (%) ([12]; leaf 3, not treated): 31%
- disease symptom reduction (%) vs. Untreated ([12]; leaf 3, not treated): 16%

SMILES: CON(C(=O)c1cn(C)nc1C(F)F)C(C)Cc1c(Cl)cc(Cl)cc1Cl (stereo not shown) [Pydiflumetofen]
- activity (%) [13]: 89%
- disease symptom reduction (%) vs. Untreated [14]: 96%
- disease symptom reduction (%) vs. Untreated [15]: 94%
- disease symptom reduction (%) vs. Untreated [16]: 97%

SMILES: Cc1cc(C2CC2)nc(Nc2ccccc2)n1 [Cyprodinil]
- disease symptom reduction (%) vs. Untreated [17]: 56%
